Data from patent publication US8216973B2, “2-[(1H-pyrazole-4-ylmethyl)-sulfonyl]-oxazole-derivative, 2-[(1H-pyrazole-4-ylmethyl)-sulfanyl]-oxazole-derivatives, and chiral 2-[(1H-pyrazole-4-ymethyl)sulfinyl]oxazole derivatives, methods for the production thereof, and use thereof as herbicides and plant growth regulators” (Bayer Cropscience AG, priority 2008, dated 2012).

Key:
[1] = system: harmful plants such as Avena fatua, Stellaria media, Echinochloa crus galli, Lolium multiflorum, Setaria viridis, Amaranthus retroflexus, Veronica persica …; assay: Pre-emergence herbicidal effect, greenhouse pot test; format: in vivo, monocotyledonous or dicotyledonous weed plants; settings: pre-emergence method, application rate of 0.32 kg and less of active substance per hectare, scored visually after about 3 weeks
Source text: 1. Pre-Emergence Herbicidal Effect and Crop Plant Compatibility
Seeds of monocotyledonous or dicotyledonous weed plants or crop plants are placed in sandy loam in wood-fiber pots and covered with soil. The compounds according to the invention, formulated in the form of wettable powders (WP), are then applied as aqueous suspension at a water application rate of 600 l/ha (converted) with the addition of 0.2% of wetting agent to the surface of the covering soil.
After the treatment, the pots are placed in a greenhouse and kept under good growth conditions for the test plants. After about 3 weeks, the effect of the preparations is scored visually in comparison with untreated controls (herbicidal effect in percent (%): 100% activity=the plants have died, 0% activity=like control plants).

[2] = system: harmful plants such as Echinochloa crus galli, Lolium multiflorum, and Setaria viridis; assay: Post-emergence herbicidal effect, greenhouse pot test; format: in vivo, monocotyledonous and dicotyledonous weed plants; settings: post-emergence method, application rate of 0.32 kg and less of active substance per hectare, rated visually after about 3 weeks
Description: 2. Post-Emergence Herbicidal Effect and Crop Plant Compatibility
Seeds of monocotyledonous and dicotyledonous weed and crop plants are placed in sandy loam in wood-fiber pots, covered with soil and cultivated in a greenhouse under good growth conditions. 2 to 3 weeks after sowing, the test plants are treated at the one-leaf stage. The compounds according to the invention, formulated in the form of wettable powders (WP), are then sprayed as aqueous suspension at a water application rate of 600 l/ha (converted) with the addition of 0.2% of wetting agent onto the green parts of the plants. After the test plants have been kept in the greenhouse under optimum growth conditions for about 3 weeks, the activity of the preparations is rated visually in comparison to untreated controls (herbicidal activity in percent (%): 100% activity=the plants have died, 0% activity=like control plants).

SMILES	herbicidal activity against harmful plants [1]	herbicidal activity against harmful plants [2]
Cn1nc(C(F)(F)F)c(C[S+]([O-])c2ncco2)c1OC(F)F (racemic) [compound 50, 2-({[5-(Difluoromethoxy)-1-methyl-3-(trifluoromethyl)-1H-pyrazol-4-yl]methyl}sulfinyl)-1,3-oxazole]	very good herbicidal activity	very good herbicidal activity
Cn1nc(C(F)(F)F)c(C[S+]([O-])c2ncco2)c1Cl (centres unmarked) [Compound No. 35, 2-({[5-(Chloro)-1-methyl-3-(trifluoromethyl)-1H-pyrazol-4-yl]methyl}sulfinyl)-1,3-oxazole]	very good herbicidal activity	very good herbicidal activity
Cn1nc(C(F)(F)F)c(C[S+]([O-])c2ncco2)c1C(F)(F)F (centres unmarked) [Compound No. 230, 2-({[1-Methyl-3,5-bis(trifluoromethyl)-1H-pyrazol-4-yl]methyl}sulfinyl)-1,3-oxazole]	very good herbicidal activity	very good herbicidal activity
Cn1nc(C(F)(F)F)c(C[S+]([O-])c2ncc(Cl)o2)c1OC(F)F (centres unmarked) [Compound No. 542, 5-Chloro-2-({[5-(difluoromethoxy)-1-methyl-3-(trifluoromethyl)-1H-pyrazol-4-yl]methyl}sulfinyl)-1,3-oxazole]	very good herbicidal activity	very good herbicidal activity
Cn1nc(C(F)(F)F)c(C[S+]([O-])c2ncc(Br)o2)c1OC(F)F (centres unmarked) [Compound No. 788, 5-Bromo-2-({[5-(difluoromethoxy)-1-methyl-3-(trifluoromethyl)-1H-pyrazol-4-yl]methyl}sulfinyl)-1,3-oxazole]	very good herbicidal activity	
Cn1nc(C(F)(F)F)c(CS(=O)(=O)c2ncc(Br)o2)c1OC(F)F [Compound No. 789, 5-Bromo-2-({[5-(difluoromethoxy)-1-methyl-3-(trifluoromethyl)-1H-pyrazol-4-yl]methyl}sulfonyl)-1,3-oxazole]	very good herbicidal activity	
Cn1nc(C(F)(F)F)c(C[S+]([O-])c2ncc(I)o2)c1OC(F)F (centres unmarked) [Compound No. 1034, 5-Iodo-2-({[5-(difluoromethoxy)-1-methyl-3-(trifluoromethyl)-1H-pyrazol-4-yl]methyl}sulfinyl)-1,3-oxazole]	very good herbicidal activity	
Cn1nc(C(F)(F)F)c(C[S@+]([O-])c2ncc(Cl)o2)c1OC(F)F [Compound No. 2449]	very good herbicidal activity	
Cn1nc(C(F)(F)F)c(C[S@+]([O-])c2ncc(Br)o2)c1OC(F)F [Compound No. 2531]	very good herbicidal activity	
Cn1nc(C(F)(F)F)c(CS(=O)(=O)c2ncco2)c1OC(F)F [compound 51, 2-({[5-(Difluoromethoxy)-1-methyl-3-(trifluoromethyl)-1H-pyrazol-4-yl]methyl}sulfonyl)-1,3-oxazole]	very good herbicidal activity	very good herbicidal activity
Cn1nc(C(F)(F)F)c(C[S@+]([O-])c2ncco2)c1OC(F)F [compound 2285, 2-[(S)-{[5-(Difluoromethoxy)-1-methyl-3-(trifluoromethyl)-1H-pyrazol-4-yl]methyl}sulfinyl]-1,3-oxazole]	very good herbicidal activity	very good herbicidal activity
